One molecule from patent US12440567B2, “Aqueous antibody formulation stabilized by antioxidants for parenteral administration” (AMGEN INC., priority 2007, dated 2025) can be followed below.

The subject of assay [1] is EPO binding to D11. Description: Binding of EPO to D11 monoclonal antibody after UV-B exposure of the formulation. On the set-up: species or system human. The method, then: For the examples below involving exposure to UVB radiation, each sample was exposed to UVB light (λ≈302 nm) for varying times, using a UVP 8W model UVLMS-38 lamp at 4° C. The formulations were then analyzed using size exclusion chromatography high pressure liquid chromatography (SEC-HPLC). Aggregation (measured via SEC-HPLC analysis) and binding (measured using CM5 gold sensor chips) were measured to determine the effect of the antioxidant on aggregation and bioactivity of the therapeutic protein. The binding activity of therapeutic protein to a ligand (e.g. to an antibody or binding partner, or, in cases where the therapeutic was an antibody, binding activity to the specific target antigen or to protein A) was determined as follows. […] The therapeutic protein-binding ligand of interest was injected until the desired immobilization level was achieved (above 5000 response units). Three different therapeutic protein-binding ligands were measured—Antibody A's target antigen, Protein A, and D11 (an antibody that binds to erythropoietin). […] The remaining activated groups were blocked with 1.0 M ethanolamine-HCl, pH 8.5. A standard curve was prepared by using native forms of the therapeutic protein of interest. Native forms of the therapeutic protein were diluted in HBS-EP buffer (pH 7.4) to concentrations between 1 and 5 μg/mL, and then injected on the column, prepared as described above to obtain a standard curve. At the end of each sample run, regeneration buffer was used to wash away any bound therapeutic protein in preparation for subsequent injections. Various UV-stressed antibody formulations were also diluted in HBS-EP buffer (pH 7.4) to a concentration within the standard curve region, and injected to quantitate the loss of bioactivity to its respective ligand-binding partner. […] The protein was exposed to the same conditions as Antibody A and Antibody B for up to 24 hours.

Assay [2] deals with EPO binding to D11. Description: EPO binding activity after metal catalyzed oxidation (Fe-EDTA, H2O2, ascorbate). Further details: species or system human. The settings on record: 5 mM ferulic acid; EPO 336 μg/mL in HBS pH 7.0; 0.2 mM Fe-EDTA, 0.3% H2O2, 1 mM ascorbate, 2 hours 37° C. The method, then: The binding activity of therapeutic protein to a ligand (e.g. to an antibody or binding partner, or, in cases where the therapeutic was an antibody, binding activity to the specific target antigen or to protein A) was determined as follows. Carboxymethyl-dextran chains on a CM5 gold sensor chip were activated with 1-ethyl-3-(3-dimethylaminopropyl)-carbodiimide HCl (EDC) and N-hydroxysuccinimide (NETS) at a flow rate of 5 μL/min. The therapeutic protein-binding ligand of interest was injected until the desired immobilization level was achieved (above 5000 response units). Three different therapeutic protein-binding ligands were measured—Antibody A's target antigen, Protein A, and D11 (an antibody that binds to erythropoietin). For introduction of Antibody A's target antigen to the column, an 80 μg injection of the antigen, diluted in 10 mM Na Acetate pH 4.0 was introduced; for Protein A, a 4 μg injection of Protein A, diluted in 10 mM Na Acetate pH 4.5, was introduced; for D11, a […] injection of D11, diluted in 10 mM Na Acetate pH 5.0 was introduced. The remaining activated groups were blocked with 1.0 M ethanolamine-HCl, pH 8.5.
A standard curve was prepared by using native forms of the therapeutic protein of interest. […]

`COc1cc(/C=C/C(=O)O)ccc1O` [ferulic acid]: in assay [1] (0.1 mM antioxidant, UV-B up to 24 hours), the “EPO binding activity to D11 during UV-B exposure” value is “able to protect the EPO from degradation and preserve its binding activity”. In addition, in assay [1] (20 mM antioxidant, up to 24 hours UV), the “binding of EPO to D11 mAb after UV light exposure” value is given as “able to significantly preserve”. In assay [2], the “EPO binding activity preserved” value is on record as 100%.
